Key:
[1] = test system: Baby Spinach (bSP) (RNA, aptamer) GGUGAAGGACGGGUCCAGUAGUUCGCUACUGUUGAGUAGAGUGUGAGCUCC; assay: fluorescence titration, 1:1 model; conditions: 50 mM KCl, 5 mM MgCl2; 10 mM HEPES pH 7.5, 2 µM DFHBI, flow-cell; apparent (one-site model)
[2] = test system: Baby Spinach (bSP) (RNA, aptamer) GGUGAAGGACGGGUCCAGUAGUUCGCUACUGUUGAGUAGAGUGUGAGCUCC; assay: fluorescence titration plus absorption spectra, multiple-site model; conditions: 50 mM KCl, 5 mM MgCl2; 10 mM HEPES pH 7.5, 2 µM DFHBI, flow-cell; site 1 of 2 (fluorescent complex); derived as K x p, p = 1.8

Kd [1]: 4.4 µM | Kd [2]: 7.9 ± 0.2 µM
SMILES: CC1=N/C(=C\c2cc(F)c(O)c(F)c2)C(=O)N1C

— PMC8016939 (2021)
